Experiment [1] has as its system male OF-1 mice. The settings on record: general statement, no dose given; cited from earlier work.
In the next experiment the test system is “intruder” rat. Particulars: background statement on anxiolytic compounds; cited from earlier work.
Experiment [2] deals with Male Rj: Wistar (Han) rats. In words: Vogel Conflict Test in the rat. The settings on record: 64 mg/kg p.o., 60 minutes before the test; p<0.01. It is filed as in vivo. As for the experimental part: Rufinamide was dispersed in 0.5% methylcellulose (MC) in distilled water. Vehicle was dispersed in 0.5% MC in distilled water. Clobazam was dispersed in 0.5% MC in distilled water. Methylcellulose (Sigma), batch n° 62K0144, white powder. Distilled water (Laboratoire Aguettant, sterile water for injectable preparation). All substances were stored in a dry, dark, controlled access area and maintained at a controlled ambient temperature (+18° C.). The vehicle suspensions were stored at +4° C.
The vehicle, test substance and reference substance were administered in a volume of 5 ml/kg body weight.
Male Rj: Wistar (Han) rats, 171-205 g body weight range were used. They were supplied by Elevage Janvier, 53940 Le Genest-Saint-Isle, France.
Animals were delivered to the laboratory at least 5 days before the experiment, during which time they were acclimatized to the laboratory conditions. They were housed in groups of 5 in macrolon cages (41×25×14 cm) on wood litter (Litalabo—SPPS, 95100 Argenteuil, France) with free access to food (Code 113-SAFE, 91360 Epinay-sur-Orge, France) and water until
Results in grouped data tables are presented as means followed by a ± sign and the standard error of the mean (s.e.m.) on the basis of 15 animals per group and as percent change from control. The statistical tests used are indicated with the method. All statistical calculations were performed using commercial software (Microsoft Excel®, GB Stat version 6.5), and verified test by test according to Porsolt & Partners Pharmacology's standardized internal procedures. All differences were considered statistically significant when the null hypothesis could be rejected at the risk α=0.05 or less.
Rats were deprived of water for 48 hours and were then placed individually into a transparent Plexiglas enclosure (15×32×34 cm) with a floor consisting of stainless steel bars (0.4 cm) spaced 1 cm apart. The back wall of the enclosure was made of opaque Plexiglass thereby concealing the observer from the experimental animal. In the centre of the opposite wall, 5 cm above the floor, a metal water spout protruded into the cage and was connected to one pole of a shock generator (Apelex: Type 011346). The other pole of the shock generator was connected to the metal grid floor.
The rat was left to explore until it found the water spout. Then, every time it drank, it received a slight electric shock (1.7 mA, 1 sec.) 2 seconds after it started lapping. The number of shocks received (punished drinkings) was counted during a 3 minute period.
15 rats were studied per group. The test was performed blind.
rufinamide was evaluated at 25, 50, 100 and 200 mg/kg, administered p.o. 60 minutes before the test, and compared with a vehicle control group.
Clobazam (64 mg/kg), administered under the same experimental conditions, was used as reference substance.
Data were analyzed by comparing treated groups with vehicle control using unpaired Student's t tests.

For experiment [3], the system named is male OF-1 mice. The experiment can be described thus: half-enclosed platform (HEP) test. It counts as in vivo, mouse. From the text:
Rufinamide and carbamazepine were compared in the half-enclosed platform (HEP) test. The test determines how drugs affect the exploratory behaviour of a mouse placed upon a novel, half-enclosed platform and gives information as to whether a drug is a stimulant, depressant or disinhibitory as with, for example the benzodiazepines which increase exploration of the platform. It is also useful for determining duration of action and dose-findings studies. The HEP is a further development of the simple elevated platform used by Kaesermann to assess anxiolytic properties of drugs (Ref. Käsermann H. P. (1986) Psychopharmacol. 89:31-37). In this study carbamazepine and rufinamide were tested in the same dose ranges i.e. 0.32/1/3.2 and 10 mg/kg p.o. of each were given to male OF-1 mice 1 hr before testing.
The ethogram used consists of 9 elements of exploratory behaviour two of which involve static postures i.e. immobility and stretched attend posture, the latter being an ambivalent element indicative of approach-avoidance conflict. These elements are immediately spontaneous and are not induced by either training or punishment procedures. Upright postures which are posturally demanding are useful to detect muscle relaxation e.g. rearing (FIG. 10).

Experiment [4] deals with male OF-1 “intruder” mice. The experiment can be described thus: Intruder test (social withdrawal of intruder mice). It is filed as in vivo, mouse. The settings on record: 1/3/10 mg/kg oral. As to the method:
Rufinamide, a Na-channel blocker and anti-epileptic agent, and carbamazepine, an anticonvulsant employed to treat bipolar disorder, were given to male OF-1 “intruder” in oral-doses of 1/3/10 mg/kg, 1 hr before the animals were confronted with an individually-housed, aggressive, male OF-1 resident mouse. […] This increase in social investigation (sociotropic effect) was accompanied by a decrease in the frequency and duration of defensive ambivalence probably through competitive inhibition. No signs of motor stimulation were detected.
The Intruder test duplicates a territorial encounter between a territory holder (aggressive male) and a subordinate “intruder” mouse. […] In this test the intruders receive the treatment whereas the residents remain untreated. (Dixon, A. K., Huber, C., Lowe, D. J. Clin. Psychiatry. 55 (9) Suppl B, 4-7 (1994)). For purposes of this study, rufinamide and carbamazepine were given orally to intruder mice 1 hr before being introduced singly to aggressive residents using doses of ⅓ and 10 mg/kg.
Over 60 ethological elements describing the social and non-social behaviour of mice based on the ethogram originally proposed by Grant and Mackintosh (Grant, E. C. Mackintosh, J. H. Behaviour 21: 246-259 (1963) ) and classified according to 9 behavioural categories (Dixon, A. K., Huber, C., Fisch, H. U. Adv. Study. Behaviour. 19: 171-204 (1990)) form the rodent ethogram as used in this test (FIG. 3).

For experiment [5], the system named is male OF-1 “intruder” mice. Particulars: earlier work (Dixon et al. 1994); cited from earlier work.
The conditions of experiment [6]: small scale placebo controlled study; cited from earlier work.

`CC(N)Cc1ccccc1` (stereo not shown) [amphetamine]: the “behavioural disinhibition in the HEP test” value with male OF-1 mice [1] was “not”.

With `CN1C(=O)CN=C(c2ccccc2)c2cc(Cl)ccc21` [diazepam], the “intruder's fear and tendency to scrutinize the resident partner” value in the experiment on “intruder” rat was “reduce the intruder's fear and to increase its tendency to scrutinize the resident partner”. The “behavioural disinhibition in the HEP test” value in the experiment with male OF-1 mice [1] was “demonstrable”.

Take `CN1C(=O)CC(=O)N(c2ccccc2)c2cc(Cl)ccc21` [Clobazam]: the “number of shocks received (punished drinking), change vs vehicle control” value in experiment [2] is listed as “+64%”.

Regarding `NC(=O)N1c2ccccc2C=Cc2ccccc21` [carbamazepine], the “exploratory activity (Sap,Go) in the open half of the platform” value in the experiment with male OF-1 mice [3] (0.32-10 mg/kg p.o., not attaining statistical significance) is listed as “general tendency for increased exploratory activity”. In addition, in the experiment on male OF-1 mice [3] (0.32/1/3.2 and 10 mg/kg p.o., 1 hr before testing), the overall ethological profile entry was “No major changes in behaviour occurred”. Also, the “elements of stationary activity” value with male OF-1 mice [3] (at 10 mg/kg p.o.) is recorded as “significant decrease”. Further, the “time spent in forward locomotion (Go) in the enclosed half” value in the experiment with male OF-1 mice [3] (at 3.2 and 10 mg/kg p.o.) is “significant shortening”. Also, in experiment [4] (1 hr before 6 minute encounter), the “non-social (NS) behaviour, frequency” value is recorded as “did not change”. The “social investigation (SI)” value in experiment [4] (1 hr before 6 minute encounter, frequency and duration) was “dose-related increase”. In experiment [4] (1 hr before encounter), the defensive ambivalence result is recorded as “reduced but, because of large variation did not attain significance”; the “overall social contact (SIM): social investigation combined with mating behaviour” value is “preserved the clear sociotropic action”; the static-flight elements entry is recorded as “dose-related reduction persisted but also did not attain significance”; the “total number of ethological elements performed in the 6 minute encounter” value is recorded as “did not change”. Moreover, the “social withdrawal in the Intruder test” value in experiment [5] was “reverses social withdrawal”.

On to `Nc1nnc(-c2cccc(Cl)c2Cl)c(N)n1` [Lamotrigine], for which the “efficacy in treating post-traumatic stress disorder” value in experiment [6] is given as “some efficacy”.

The record behind these values is patent US20090054414A1, “Rufinamide for the Treatment of Post-Traumatic Stress Disorder” (SYNOSIA THERAPEUTICS, priority 2007, published 2009).
